According to US10662156B2, “Guanidine derivative and medical use thereof” (Toray Industries, Inc., priority 2016, dated 2020):

Tests used:
[1] = test system: imiquimod-induced psoriasis mouse models; assay: Suppressive effect on auricular hypertrophy in imiquimod-induced psoriasis mouse model; type: in vivo, BALB/c male mice; conditions: for change in the thickness of the auricle (increase): post-induction days 4 to 7, post-induction day 8 vs before induction, vehicle group 198 μm; for change in the thickness of the auricle compared to the vehicle administration group (in words): P<0.05
Method: (§1) The guanidine derivative (I) or the pharmacologically acceptable salt thereof was evaluated for its exertion of a therapeutic effect on psoriasis, one type of autoimmune disease, in an in vivo experimental system using imiquimod-induced psoriasis mouse models in accordance with the method described in the literature (The Journal of Dermatological Science, 2014, Vol. 76, No. 2, p. 96-103). Specifically, the evaluation was conducted by verifying the suppressive effect of the compound on auricular hypertrophy by using, as an index, the thickness of the auricle increased with the progression of symptoms in imiquimod-induced psoriasis models.
Seven-week-old BALB/c male mice (Charles River Laboratories Japan, Inc.) were preliminarily bred and then used at the age of 8 weeks. To induce psoriasis-like symptoms, 5 mg/ear of Beselna Cream 5% was applied (imiquimod dose: 0.25 mg/body/day) to both the ears of each mouse once a day for 8 days from the date of initial administration of imiquimod (hereinafter, referred to as post-induction day 0) to post-induction day 7. A dosing vehicle was prepared by adding Tween 20 to a 0.5% (w/v) aqueous methylcellulose solution to attain a final concentration of 0.025% (v/v). A test compound was suspended in the dosing vehicle to prepare a drug solution. The drug solution was orally administered (dosing volume: 10 mL/kg) twice a day (a.m. and p.m.) for 4 days from post-induction days 4 to 7. The test compound used was the compound of Example 2, and groups given the compound of Example 2 were designated as Example 2 compound administration groups. A group given only the dosing vehicle in the same way as above was established as a vehicle administration group.
The thickness of the auricle before imiquimod administration (before induction) at the date of induction and the thickness of the auricle at post-induction day 8 were measured using a digital micrometer (Mitsutoyo Corp.), and the change therebetween (the thickness of the auricle at post-induction day 8—the thickness of the auricle before induction) was used as an index for drug efficacy evaluation. Statistical analysis was carried out using statistical analysis software EXSAS (ver. 7.6). As a result of studying homoscedasticity among the groups by the Bartlett's test, the variance was homogeneous. Therefore, the parametric Dunnett test (two-tailed) was carried out. As for the drug dependence of the drug efficacy of the compound of Example 2 on auricular hypertrophy, as a result of studying homoscedasticity between the vehicle group and each compound administration group by the Bartlett's test, the variance was homogeneous. Therefore, the Williams test (two-tailed) was carried out. P<0.05 was confirmed as significant difference.
The ordinate of the drawing depicts the change in the thickness of the auricle (μm), and the abscissa depicts each administration group. The term “Compound of Example 2” depicts the Example 2 compound administration groups.

[2] = test system: oxazolone-induced atopic dermatitis mouse models; assay: Suppressive effect on auricular hypertrophy in oxazolone-induced atopic dermatitis mouse model; type: in vivo, BALB/c male mice; conditions: 30 mg/kg orally twice a day
Method: as §1, with “atopic dermatitis,” for “psoriasis,”, “allergic” for “autoimmune”, “oxazolone-induced atopic dermatitis” for “imiquimod-induced psoriasis”, “(Plos One,” for “(The Journal of Dermatological Science, 2014,”, “8,” for “76,”, “7, e6614).” for “2, p. 96-103).”
Seven-week-old BALB/c male mice (Charles River Laboratories Japan, Inc.) were preliminarily bred and then used at the age of 8 weeks. […]
The thickness of the auricle before oxazolone administration (before induction) at the date of induction and the thickness of the auricle at post-induction day 28 were measured using a digital micrometer (Mitsutoyo Corp.), and the change therebetween (the thickness of the auricle at post-induction day 28—the thickness of the auricle before induction) was used as an index for drug efficacy evaluation. […]

Cl.N/C(=N\S(=O)(=O)c1ccccc1)NCc1cnc(-c2ccc(Cl)cc2)c(-c2ccc(Cl)cc2)c1 [Compound of Example 2, N-(amino(((5,6-bis(4-chlorophenyl)pyridin-3-yl)methyl)amino)methylene)benzenesulfonamide Hydrochloride]
change in the thickness of the auricle (increase) ([1]; 7.5 mg/kg orally twice a day): 179 μm
change in the thickness of the auricle (increase) ([1]; 15 mg/kg orally twice a day): 131 μm
change in the thickness of the auricle compared to the vehicle administration group (in words) ([1]; 15 mg/kg orally twice a day): significantly decreased
change in the thickness of the auricle (increase) ([1]; 30 mg/kg orally twice a day): 118 μm
change in the thickness of the auricle compared to the vehicle administration group (in words) ([1]; 30 mg/kg orally twice a day): significantly decreased
change in the thickness of the auricle (increase) ([2]; post-induction days 21 to 27, post-induction day 28 vs before induction, vehicle group 515 μm): 419 μm
change in the thickness of the auricle compared to the vehicle administration group (in words) ([2]; t test, P<0.05): statistically significantly decreased
